Laboratory results reported in US7229985B2, “Amorphous substance of tricyclic triazolobenzazepine derivative” (Meiji Seika Kaisha, Ltd., priority 2001, dated 2007).
Converted amounts (≈) assume the structure as drawn.

Legend:
[1] = Solubility in glycerin, propylene glycol, Macrogol 400 and the like; assay type: physicochemical
[2] = Solubility in methylene chloride; assay type: physicochemical
[3] = Oral absorption of pulverized crystal; assay type: in vivo; details: orally administered to dogs
Experimental: In addition, an experiment in which a pulverized crystal of crystalline compound A is prepared according to the description of Japanese Patent Laid-Open No. 185013/1987 disclosing a drug, which has been rendered easily absorbable by pulverizing was carried out. The treated drug is orally administered to experimental animals such as dogs.

[4] = Dissoluvability Test (1): solubility in water or 1 wt % aqueous methylcellulose solution at 37° C.; assay type: physicochemical
Experimental: Water or a 1 wt % aqueous methylcellulose solution was provided as a test liquid, and solubility of various samples in the test liquid was examined. Each sample in an amount of about 100 mg in terms of compound A was added to 500 mL of the test liquid kept at 37° C., and the mixture was stirred with a paddle at 200 rpm. Sampling was carried out at predetermined time intervals, and the samples were filtered through a membrane filter (Sumplep LCR 13-LG, manufactured by Millipore Corporation). The concentration of compound A in each of the filtrates was analyzed by HPLC.
In Test Example 2, HPLC was carried out under the following measuring conditions.
Detector: Ultraviolet absorptiometer (measuring wavelength: 240 nm)
Column: Inertsil ODS 2 4.6×250 mm in which a stainless tube having an inner diameter of 4.6 mm and a length of 25 cm was packed with a 5-μm octadecylsilyl silica gel for liquid chromatography.
Column temp.: Around 40° C.
Mobile phase: 0.1 wt % ammonium acetate:methanol (45:55)

[5] = Absorption Test: oral administration, plasma compound B concentration; assay type: in vivo, beagles
Experimental: The sample produced in Comparative Example 1 or Example 1 was suspended in a 1 wt % aqueous methylcellulose solution. The suspension was administered orally to beagles (n=6) which had been subjected to fasting overnight. The difference in absorption among the samples was evaluated by comparing the area under the plasma drug concentration-time curve (AUC).
The plasma drug concentration in the collected blood was quantitatively determined according roughly to the following method.
Blood (about 0.7 mL) collected from the cephalic vein was centrifuged (4° C., about 9000×g, 10 min) in the presence of heparin to obtain plasma. Methanol (400 μL) and an internal standard substance solution (sodium salt of 7-methyl-4(5H),10-dioxo-2H-1,2,3-triazolo[4,5-c][1]benzazepine, 100 ng/mL, 100 μL) were added to the plasma (100 μL), and the mixture was stirred and centrifuged (4° C., about 9000×g, 10 min).
The supernatant was evaporated to dryness at room temperature under a nitrogen gas stream, and 150 μL of a mixed solution composed of a 10 mmol/L phosphate buffer (pH 7.0) and a methanol (8:2) was added to the residue for redissolution. The solution was then filtered by a centrifugal filter (Centricut Ultra-Mmini (KURABO INDUSTRIES LTD.), 4° C., about 9000×g, 10 min), and the filtrate was analyzed as a sample by HPLC. […]
Fluorescence detection wavelength: Ex 270 nm, Em 466 nm (GAIN=100, response=standard) […]

[6] = test liquid 1 wt % aqueous methylcellulose solution, 37° C. (FIG. 3)
[7] = test liquid water, 37° C., about 100 mg in 500 mL, paddle 200 rpm (FIG. 2), level reached

solubility in methylene chloride [2]	improvement in absorption [3]	concentration of dissolution [4, 6]	concentration of dissolution [4, 7]	plasma compound B concentration over time versus crystalline compound of Comparative Example 1 ([5]; beagles, dose one-eighth of the dose of the crystalline compound)	plasma compound B concentration versus crystalline compound of Comparative Example 1 ([5]; suspension in 1 wt % aqueous methylcellulose, fasted beagles (FIG. 5))	solubility ([4]; 1 wt % aqueous methylcellulose solution, aqueous with cosolvent or surfactant or cyclodextrin, thermodynamic from solid, in a 1 wt % methylcellulose solution at 37° C.) [µg/mL]	time for which concentration of dissolution was maintained ([4]; test liquid 1 wt % aqueous methylcellulose solution, 37° C.) [h]	concentration of dissolution after lowering ([4]; test liquid water, 37° C., value to which the concentration then lowered (FIG. 2))	Compound	solubility in glycerin, propylene glycol, Macrogol 400 and the like [1]
about 1 % by weight	not more than expected	not more than 1 μg/mL	not more than 1 μg/mL	–	–	–	–	–	COc1cc2[nH]c(=O)c3nn(C(OC(=O)OC(C)C)C(C)C)nc3c(=O)c2cc1OC (stereo not drawn) [Comparative Example 1, 2-(1-Isopropoxycarbonyloxy-2-methylpropyl)-7,8-dimethoxy-4(5H), 10-dioxo-2H-1,2,3-triazolo[4,5-c][1]benzazepine]	not on such a level that can make crystalline compound A pharmaceutically usable
–	–	not less than 18 μg/mL	about 5 μg/mL	much higher	significantly higher	15 to 20 (≈ 34.7 to 46.2 µM)	4	about 3 μg/mL	COc1cc2[nH]c(=O)c3nn(C(OC(=O)OC(C)C)C(C)C)nc3c(=O)c2cc1OC (stereo not drawn) [Example 1, 2-(1-isopropoxycarbonyloxy-2-methylpropyl)-7,8-dimethoxy-4(5H), 10-dioxo-2H-1,2,3-triazolo[4,5-c][1]benzazepine]	–
